According to US20240018146A1, “COMPOSITIONS AND METHODS OF USING THE SAME FOR TREATMENT OF NEURODEGENERATIVE AND MITOCHONDRIAL DISEASE” (MITOKININ, INC., priority 2020, published 2024):
Read-outs that look alike come from different tables or passages of the source.

Columns and labels:
Format in all cases: cell-based
[1] = Mitotoxicity / Mitotox safety margin (therapeutic window)
HeLa MKYP cells [2] = experiment: Cell death measured by DAPI staining, with 1 μM FCCP/oligomycin or no toxin (no FO)
How it was run: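 HeLa MKYP cells were treated with compounds alongside 1 μM FCCP/oligomycin or no toxin for 6 or 6.5 h. Cell death was scored by DAPI staining, with H2O2 treatment as the death control.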

HeLa MKYP cells [3] = experiment: Human mitophagy assay (HeLa mKeima assay, FACS); details: read-out: Mitophagy induction EC50
How it was run: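 HeLa cells carrying the pH-sensitive mtKeima tag incubated 16 h with compound at several concentrations, then 1 uM FCCP/oligomycin for 6 h. FACS detects mitochondria in lysosomes through the Keima emission shift, quantified as percentage of cells in mitophagy.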

Compound: FC(F)(F)c1cc2c(N[C@H]3c4ccccc4CC[C@@H]3C3CCOCC3)ncnc2[nH]1 (single isomer, unassigned) [EP-0040580]
- Mito-Safety Index (highest safe dose/EC50) [1]: 68.72
- Highest safe dose (μM) (mitotox or cytotox) [1]: 5.5 µM
- Highest safe dose (cytotoxicity; no FO; safe means DAPI+ <20%) (HeLa MKYP cells [2]): 25.0 µM
- Max % death with 1 μM FO (HeLa MKYP cells [2]): 17.1%
- EC50 (HeLa MKYP cells [3]; Homo sapiens, HeLa): 0.08 µM

Compound: c1ccc2c(c1)CC[C@H](C1CCOCC1)[C@H]2Nc1ncnc2[nH]c(C3CC3)cc12 (single isomer, unassigned) [EP-0040582]
- Mito-Safety Index (highest safe dose/EC50) [1]: 68.01
- Highest safe dose (μM) (mitotox or cytotox) [1]: 5.1 µM
- Highest safe dose (cytotoxicity; no FO; safe means DAPI+ <20%) (HeLa MKYP cells [2]): 25.0 µM
- Max % death with 1 μM FO (HeLa MKYP cells [2]): 17.7%
- EC50 (HeLa MKYP cells [3]; Homo sapiens, HeLa): 0.08 µM

Compound: Fc1ccc2c(c1)OC[C@H](N1C[C@@H]3COC[C@H]3C1)[C@H]2Nc1ncnc2[nH]c(C3CC3)cc12 (single isomer, unassigned) [EP-0040644]
- Mito-Safety Index (highest safe dose/EC50) [1]: 72.77
- Highest safe dose (μM) (mitotox or cytotox) [1]: 25.0 µM
- Highest safe dose (cytotoxicity; no FO; safe means DAPI+ <20%) (HeLa MKYP cells [2]): 25.0 µM
- Max % death with 1 μM FO (HeLa MKYP cells [2]): 8.1%
- EC50 (HeLa MKYP cells [3]): 0.34 µM

Compound: FC(F)(F)c1cc2c(N[C@@H]3c4ccccc4OC[C@H]3C3CCOCC3)ncnc2[nH]1 (single isomer, unassigned) [EP-0040700]
- Mito-Safety Index (highest safe dose/EC50) [1]: 41.37
- Highest safe dose (μM) (mitotox or cytotox) [1]: 4.7 µM
- Highest safe dose (cytotoxicity; no FO; safe means DAPI+ <20%) (HeLa MKYP cells [2]): 25.0 µM
- Max % death with 1 μM FO (HeLa MKYP cells [2]): 14.1%
- EC50 (HeLa MKYP cells [3]; Homo sapiens, HeLa): 0.11 µM

Compound: Fc1ccc2c(c1)CC[C@@H](N1C[C@H]3COC[C@H]3C1)[C@@H]2Nc1ncnc2[nH]c(C(F)(F)F)cc12 (single isomer, unassigned) [EP-0040721]
- Mito-Safety Index (highest safe dose/EC50) [1]: 46.94
- Highest safe dose (μM) (mitotox or cytotox) [1]: 8.3 µM
- Highest safe dose (cytotoxicity; no FO; safe means DAPI+ <20%) (HeLa MKYP cells [2]): 8.3 µM
- Max % death with 1 μM FO (HeLa MKYP cells [2]): 36.3%
- EC50 (HeLa MKYP cells [3]; Homo sapiens, HeLa): 0.18 µM

Compound: Fc1ccc2c(c1)OC[C@H](N1C[C@H]3COC[C@@H]3C1)[C@H]2Nc1ncnc2[nH]c(C(F)(F)F)cc12 (single isomer, unassigned) [EP-0040748]
- Mito-Safety Index (highest safe dose/EC50) [1]: 46.81
- Highest safe dose (μM) (mitotox or cytotox) [1]: 9.9 µM
- Highest safe dose (cytotoxicity; no FO; safe means DAPI+ <20%) (HeLa MKYP cells [2]): 25.0 µM
- Max % death with 1 μM FO (HeLa MKYP cells [2]): 25.3%
- EC50 (HeLa MKYP cells [3]): 0.21 µM

Compound: CO[C@H]1CCN([C@@H]2COc3ccccc3[C@H]2Nc2ncnc3[nH]c(C(F)(F)F)cc23)C1 [EP-0041173]
- Highest safe dose (cytotoxicity; no FO; safe means DAPI+ <20%) (HeLa MKYP cells [2]): 25.0 µM
- Max % death with 1 μM FO (HeLa MKYP cells [2]): 6.1%
- EC50 (HeLa MKYP cells [3]; Homo sapiens, HeLa): 4.09 µM

Compound: COCC1CC([C@H]2COc3ccccc3[C@@H]2Nc2ncnc3[nH]c(C(F)(F)F)cc23)C1 (stereo partly drawn) [EP-0041260]
- Highest safe dose (cytotoxicity; no FO; safe means DAPI+ <20%) (HeLa MKYP cells [2]): 25.0 µM
- Max % death with 1 μM FO (HeLa MKYP cells [2]): 10.2%
- EC50 (HeLa MKYP cells [3]; Homo sapiens, HeLa): 0.85 µM

Compound: N#CC1CN([C@H]2COc3ccccc3[C@@H]2Nc2ncnc3[nH]c(C(F)(F)F)cc23)C1 [EP-0041332]
- Highest safe dose (cytotoxicity; no FO; safe means DAPI+ <20%) (HeLa MKYP cells [2]): 25.0 µM
- Max % death with 1 μM FO (HeLa MKYP cells [2]): 11.7%
- EC50 (HeLa MKYP cells [3]; Homo sapiens, HeLa): 1.54 µM

Compound: CC(C)OC1CN([C@H]2COc3ccccc3[C@@H]2Nc2ncnc3[nH]c(C(F)(F)F)cc23)C1 [EP-0041465]
- Highest safe dose (cytotoxicity; no FO; safe means DAPI+ <20%) (HeLa MKYP cells [2]): 25.0 µM
- Max % death with 1 μM FO (HeLa MKYP cells [2]): 4.6%
- EC50 (HeLa MKYP cells [3]; Homo sapiens, HeLa): 6.85 µM

Compound: COC(C)(C)C1CN([C@H]2COc3ccccc3[C@@H]2Nc2ncnc3[nH]c(C(F)(F)F)cc23)C1 [EP-0041480]
- Highest safe dose (cytotoxicity; no FO; safe means DAPI+ <20%) (HeLa MKYP cells [2]): 25.0 µM
- Max % death with 1 μM FO (HeLa MKYP cells [2]): 4.6%
- EC50 (HeLa MKYP cells [3]; Homo sapiens, HeLa): 2.69 µM

Compound: CS(=N)(=O)C1CN(C2COc3ccccc3C2Nc2ncnc3[nH]c(C(F)(F)F)cc23)C1 (stereo not drawn) [EP-0041496]
- Highest safe dose (cytotoxicity; no FO; safe means DAPI+ <20%) (HeLa MKYP cells [2]): 25.0 µM
- Max % death with 1 μM FO (HeLa MKYP cells [2]): 3.4%
- EC50 (HeLa MKYP cells [3]; Homo sapiens, HeLa): > 25 µM

Compound: CO[C@H]1CCN([C@@H]2COc3ccccc3[C@H]2Nc2ncnc3[nH]c(C4CC4)cc23)C1 [EP-0041518]
- Highest safe dose (cytotoxicity; no FO; safe means DAPI+ <20%) (HeLa MKYP cells [2]): 25.0 µM
- Max % death with 1 μM FO (HeLa MKYP cells [2]): 7.4%
- EC50 (HeLa MKYP cells [3]; Homo sapiens, HeLa): > 25 µM

Compound: COC[C@H]1CCN([C@H]2COc3ccccc3[C@@H]2Nc2ncnc3[nH]c(C4CC4)cc23)C1 [EP-0041547]
- Highest safe dose (cytotoxicity; no FO; safe means DAPI+ <20%) (HeLa MKYP cells [2]): 25.0 µM
- Max % death with 1 μM FO (HeLa MKYP cells [2]): 8.2%
- EC50 (HeLa MKYP cells [3]): 7.29 µM

Compound: COC[C@H]1CCCN1[C@H]1COc2ccccc2[C@@H]1Nc1ncnc2[nH]c(C(F)(F)F)cc12 [EP-0041553]
- Highest safe dose (cytotoxicity; no FO; safe means DAPI+ <20%) (HeLa MKYP cells [2]): 25.0 µM
- Max % death with 1 μM FO (HeLa MKYP cells [2]): 5.7%
- EC50 (HeLa MKYP cells [3]; Homo sapiens, HeLa): 15.2 µM
